Results published in publication PMC5786306, “An AKAP-Lbc-RhoA interaction inhibitor promotes the translocation of aquaporin-2 to the plasma membrane of renal collecting duct principal cells” (PLoS ONE, 2018).
“Also recorded” adds a separate entry of the source.

Legend:
[1] = test system: AKAP-Lbc-mediated activation of RhoA in HEK293 cells; assay: SRE luciferase reporter assay, AKAP-Lbc expressed; format: cell-based, human; conditions: Scaff10
Method: (§1) Luciferase reporter gene assays were performed with the Dual Luciferase Reporter Assay System (Promega) according to manufactures protocol and as previously reported. In brief, HEK293 cells were seeded and co-transfected with the indicated plasmids together with pSRE.L reporter plasmid encoding firefly luciferase (kindly provided from Dr J. Mao and Dr. D. Wu, Rochester, NY) and pRL-TK control vector (Promega, Mannheim, Germany) encoding renilla luciferase. The transfected cells were further cultured in DMEM with 0.5% FCS for 24 h, lysed with passive lysis buffer (Promega). Luciferase activities was measured an Envision Instrument (Perkin Elmer, Rodgau, Germany) in white 96-well plates. […] In Western blots, the protein was detected with primary polyclonal antibody (rabbit; Gramsch, 1:1000). […] AKAP-Lbc was detected with a specific anti-AKAP-Lbc antibody (Abcam; #ab99377; 1:1000). […]
(§2) Fig 7 Scaff10-8 inhibits the AKAP-Lbc-mediated activation of RhoA in cells. […] Statistically significant differences were determined applying one-way ANOVA with posthoc Bonferroni. […]
(§3) in luciferase activity induced by other GEFs. n=3; statistically significant differences were not found, as confirmed by statistical analysis using ANOVA. […] The fraction of active RhoA was determined using Rhotekin pulldown assays as described. […]

[2] = test system: RhoA activation by other RhoGEFs (p63RhoGEF, Duet, Trio, LARG, Ost1, PDZRhoGEF and others) in HEK293 cells; assay: SRE luciferase reporter assay, other RhoGEFs expressed; format: cell-based, human; conditions: Scaff10 50 μM
Method: as §1, §2, §3

[3] = test system: AQP2 localization and F-actin in primary IMCD cells; assay: Immunofluorescence microscopy of AQP2 and F-actin in primary IMCD cells; format: cell-based, rat
Description: Primary rat renal inner medullary collecting duct (IMCD) cells were obtained and cultured as previously described. AQP2 was detected with specific rabbit (H27 antibody) and secondary Cy3-coupled antibodies, and F-actin was visualized with Alexa Fluor 647-Phalloidin by laser scanning microscopy (LSM780; Zeiss Jena, Germany) as described.
Fig 8 Scaff10-8 promotes the redistribution of AQP2 to the plasma membrane of primary IMCD cells, which is independent of cAMP elevation and associated with depolymerization of F-actin. (A) Upper panel. IMCD cells were treated with DMSO (1%; control), the solvent of Scaff10-8, or forskolin (10 μM, 30 min) to stimulate cAMP synthesis. Lower panels: The cells were treated for 1 hour with Scaff10-8 (30 μM) alone (control) or with Scaff10-8 and forskolin. Forskolin (10 μM) was added for the final 30 min of Scaff10-8 incubation. AQP2 (green) was detected with specific primary and Cy3-coupled secondary antibodies, F-actin (red) with Alexa Fluor 647-Phalloidin and nuclei with DAPI (blue). Signals were visualized using a laser scanning microscope. Representative images are shown. n = 3. The magnified views were derived from the indicated boxes. (B) The signal intensities arising from intracellular and plasma membrane AQP2 were recorded, related to nuclear signal intensities, and the ratios of plasma membrane to intracellular fluorescence signal intensities were calculated (n = 30 cells per condition). Ratios > 1 indicate a predominant localization of AQP2 at the plasma membrane. Statistically significant differences were calculated using one-way ANOVA with posthoc Bonferroni. Mean ± SEM; *, p ≤ 0.05; *** p ≤ 0.001.

SMILES: COc1ccc(-c2coc3cc4oc(=O)c(C)c(C)c4cc23)cc1 [Scaff10, 3-(4-Methoxyphenyl)-5,6-dimethyl-furo[3,2-g]chromen-7-one]
- AKAP-Lbc-mediated activation of RhoA (SRE luciferase activity) [1]: selectively inhibited; also recorded: concentration-dependently inhibits
- luciferase activity induced by other GEFs [2]: does not affect

SMILES: COc1ccc(-c2coc3cc4oc(=O)c(CCC(=O)O)c(C)c4cc23)cc1 [Scaff10-8, 3-[3-(4-Methoxyphenyl)-5-methyl-7-oxo-furo[3,2-g]chromen-6-yl] propanoic acid]
- effect on forskolin-induced redistribution of AQP2 ([3]; 30 μM, 1 h plus forskolin): did not enhance the forskolin-induced redistribution
- F-actin ([3]; Scaff10-8 30 μM alone, forskolin alone): F-actin also decreased
- localization of AQP2 ([3]; Scaff10-8 30 μM, 1 h, no forskolin, forskolin 10 μM, 30 min): caused the translocation of AQP2 to the plasma membrane
- effect of forskolin on F-actin ([3]; Scaff10-8 plus forskolin): did not influence
